{"source": "the supplement of paper PMC10307832"}
{"compound": "C=CCn1c(=O)c2cnc(Nc3ccc(N4CCN(C)CC4)cc3)nc2n1-c1cccc(C(C)(C)O)n1 [Adavosertib] + N=C(N)NC(=N)NCCc1ccccc1 [Phenformin] (partner 250 µM)", "test": "relative viability (nuclei count vs DMSO), 5 days (fraction); higher = more cells survive", "conditions": "first compound 0.01 µM", "in_short": "(§1)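 Lung cancer cell lines in 1536-well plates were dosed by pin tool the day after seeding, either with one drug alone or with a fixed anchor-drug dose plus five library-drug doses (not always all listed) in √10 steps. After 5 days, cells were fixed and their nuclei stained in one step (final 0.05% Triton X-100, 1% formaldehyde, 1 ug/ml Hoechst), then counted on 4× images. Relative viability is the nuclei count in treated wells divided by that in vehicle wells. Values are medians of duplicate plates.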"}
{"cell line": "201T", "relative viability": 0.453}
{"cell line": "A549", "relative viability": 0.218}
{"cell line": "A-427", "relative viability": 0.337}
{"cell line": "ABC-1", "relative viability": 0.228}
{"cell line": "BEN", "relative viability": 0.277}
{"cell line": "CAL-12T", "relative viability": 0.576}
{"cell line": "COR-L23", "relative viability": 0.433}
{"cell line": "COR-L 105", "relative viability": 0.558}
{"cell line": "ChaGo-K-1", "relative viability": 0.469}
{"cell line": "EKVX", "relative viability": 0.249}
{"cell line": "EPLC-272H", "relative viability": 0.314}
{"cell line": "H3255", "relative viability": 0.351}
{"cell line": "HARA", "relative viability": 0.513}
{"cell line": "HCC-15", "relative viability": 0.474}
{"cell line": "HCC-44", "relative viability": 0.255}
{"cell line": "HCC-78", "relative viability": 0.582}
{"cell line": "HCC-366", "relative viability": 0.622}
{"cell line": "HCC-827", "relative viability": 0.391}
{"cell line": "HOP-62", "relative viability": 0.698}
{"cell line": "LC-2-ad", "relative viability": 0.565}
{"cell line": "LCLC-97TM1", "relative viability": 0.428}
{"cell line": "LCLC-103H", "relative viability": 0.347}
{"cell line": "LK-2", "relative viability": 0.75}
{"cell line": "LOU-NH91", "relative viability": 0.661}
{"cell line": "LU99A", "relative viability": 0.963}
{"cell line": "LXF-289", "relative viability": 0.528}
{"cell line": "NCI-H23", "relative viability": 0.732}
{"cell line": "NCI-H322M", "relative viability": 0.737}
{"cell line": "NCI-H358", "relative viability": 0.288}
{"cell line": "NCI-H441", "relative viability": 0.876}
{"cell line": "NCI-H460", "relative viability": 0.523}
{"cell line": "NCI-H520", "relative viability": 0.667}
{"cell line": "NCI-H522", "relative viability": 0.679}
{"cell line": "NCI-H596", "relative viability": 0.662}
{"cell line": "NCI-H647", "relative viability": 0.495}
{"cell line": "NCI-H650", "relative viability": 0.422}
{"cell line": "NCI-H661", "relative viability": 0.28}
{"cell line": "NCI-H1563", "relative viability": 0.692}
{"cell line": "NCI-H1623", "relative viability": 0.553}
{"compound": "C=CCn1c(=O)c2cnc(Nc3ccc(N4CCN(C)CC4)cc3)nc2n1-c1cccc(C(C)(C)O)n1 [Adavosertib] + N=C(N)NC(=N)NCCc1ccccc1 [Phenformin] (partner 250 µM)", "test": "relative viability (nuclei count vs DMSO), 5 days (fraction); higher = more cells survive", "conditions": "first compound 0.03162 µM", "in_short": "as §1"}
{"cell line": "201T", "relative viability": 0.441}
{"cell line": "A549", "relative viability": 0.229}
{"cell line": "A-427", "relative viability": 0.289}
{"cell line": "ABC-1", "relative viability": 0.237}
{"cell line": "BEN", "relative viability": 0.261}
{"cell line": "CAL-12T", "relative viability": 0.545}
{"cell line": "COR-L23", "relative viability": 0.465}
{"cell line": "COR-L 105", "relative viability": 0.443}
{"cell line": "ChaGo-K-1", "relative viability": 0.506}
{"cell line": "EKVX", "relative viability": 0.238}
{"cell line": "EPLC-272H", "relative viability": 0.306}
{"cell line": "H3255", "relative viability": 0.369}
{"cell line": "HARA", "relative viability": 0.476}
{"cell line": "HCC-15", "relative viability": 0.471}
{"cell line": "HCC-44", "relative viability": 0.237}
{"cell line": "HCC-78", "relative viability": 0.744}
{"cell line": "HCC-366", "relative viability": 0.678}
{"cell line": "HCC-827", "relative viability": 0.434}
{"cell line": "HOP-62", "relative viability": 0.621}
{"cell line": "LC-2-ad", "relative viability": 0.635}
{"cell line": "LCLC-97TM1", "relative viability": 0.397}
{"cell line": "LCLC-103H", "relative viability": 0.372}
{"cell line": "LK-2", "relative viability": 0.435}
{"cell line": "LOU-NH91", "relative viability": 0.743}
{"cell line": "LU99A", "relative viability": 0.808}
{"cell line": "LXF-289", "relative viability": 0.553}
{"cell line": "NCI-H23", "relative viability": 0.759}
{"cell line": "NCI-H322M", "relative viability": 0.759}
{"cell line": "NCI-H358", "relative viability": 0.295}
{"cell line": "NCI-H441", "relative viability": 0.78}
{"cell line": "NCI-H460", "relative viability": 0.566}
{"cell line": "NCI-H520", "relative viability": 0.547}
{"cell line": "NCI-H522", "relative viability": 0.57}
{"cell line": "NCI-H596", "relative viability": 0.909}
{"cell line": "NCI-H647", "relative viability": 0.533}
{"cell line": "NCI-H650", "relative viability": 0.498}
{"cell line": "NCI-H661", "relative viability": 0.264}
{"cell line": "NCI-H1563", "relative viability": 0.603}
{"cell line": "NCI-H1623", "relative viability": 0.629}
{"compound": "C=CCn1c(=O)c2cnc(Nc3ccc(N4CCN(C)CC4)cc3)nc2n1-c1cccc(C(C)(C)O)n1 [Adavosertib] + N=C(N)NC(=N)NCCc1ccccc1 [Phenformin] (partner 250 µM)", "test": "relative viability (nuclei count vs DMSO), 5 days (fraction); higher = more cells survive", "conditions": "first compound 0.1 µM", "in_short": "as §1"}
{"cell line": "201T", "relative viability": 0.467}
{"cell line": "A549", "relative viability": 0.14}
{"cell line": "A-427", "relative viability": 0.297}
{"cell line": "ABC-1", "relative viability": 0.208}
{"cell line": "BEN", "relative viability": 0.299}
{"cell line": "CAL-12T", "relative viability": 0.573}
{"cell line": "COR-L23", "relative viability": 0.442}
{"cell line": "COR-L 105", "relative viability": 0.467}
{"cell line": "ChaGo-K-1", "relative viability": 0.484}
{"cell line": "EKVX", "relative viability": 0.227}
{"cell line": "EPLC-272H", "relative viability": 0.353}
{"cell line": "H3255", "relative viability": 0.363}
{"cell line": "HARA", "relative viability": 0.548}
{"cell line": "HCC-15", "relative viability": 0.494}
{"cell line": "HCC-44", "relative viability": 0.192}
{"cell line": "HCC-78", "relative viability": 0.821}
{"cell line": "HCC-366", "relative viability": 0.626}
{"cell line": "HCC-827", "relative viability": 0.46}
{"cell line": "HOP-62", "relative viability": 0.802}
{"cell line": "LC-2-ad", "relative viability": 0.621}
{"cell line": "LCLC-97TM1", "relative viability": 0.488}
{"cell line": "LCLC-103H", "relative viability": 0.319}
{"cell line": "LK-2", "relative viability": 0.364}
{"cell line": "LOU-NH91", "relative viability": 0.687}
{"cell line": "LU99A", "relative viability": 0.982}
{"cell line": "LXF-289", "relative viability": 0.527}
{"cell line": "NCI-H23", "relative viability": 0.838}
{"cell line": "NCI-H322M", "relative viability": 0.656}
{"cell line": "NCI-H358", "relative viability": 0.322}
{"cell line": "NCI-H441", "relative viability": 1.09}
{"cell line": "NCI-H460", "relative viability": 0.493}
{"cell line": "NCI-H520", "relative viability": 0.657}
{"cell line": "NCI-H522", "relative viability": 0.691}
{"cell line": "NCI-H596", "relative viability": 0.754}
{"cell line": "NCI-H647", "relative viability": 0.354}
{"cell line": "NCI-H650", "relative viability": 0.458}
{"cell line": "NCI-H661", "relative viability": 0.276}
{"cell line": "NCI-H1563", "relative viability": 0.667}
{"cell line": "NCI-H1623", "relative viability": 0.563}
{"compound": "C=CCn1c(=O)c2cnc(Nc3ccc(N4CCN(C)CC4)cc3)nc2n1-c1cccc(C(C)(C)O)n1 [Adavosertib] + N=C(N)NC(=N)NCCc1ccccc1 [Phenformin] (partner 250 µM)", "test": "relative viability (nuclei count vs DMSO), 5 days (fraction); higher = more cells survive", "conditions": "first compound 0.3162 µM", "in_short": "as §1"}
{"cell line": "201T", "relative viability": 0.453}
{"cell line": "A549", "relative viability": 0.173}
{"cell line": "A-427", "relative viability": 0.255}
{"cell line": "ABC-1", "relative viability": 0.222}
{"cell line": "BEN", "relative viability": 0.25}
{"cell line": "CAL-12T", "relative viability": 0.336}
{"cell line": "COR-L23", "relative viability": 0.267}
{"cell line": "COR-L 105", "relative viability": 0.409}
{"cell line": "ChaGo-K-1", "relative viability": 0.457}
{"cell line": "EKVX", "relative viability": 0.234}
{"cell line": "EPLC-272H", "relative viability": 0.245}
{"cell line": "H3255", "relative viability": 0.336}
{"cell line": "HARA", "relative viability": 0.361}
{"cell line": "HCC-15", "relative viability": 0.504}
{"cell line": "HCC-44", "relative viability": 0.181}
{"cell line": "HCC-78", "relative viability": 0.704}
{"cell line": "HCC-366", "relative viability": 0.674}
{"cell line": "HCC-827", "relative viability": 0.387}
{"cell line": "HOP-62", "relative viability": 0.769}
{"cell line": "LC-2-ad", "relative viability": 0.597}
{"cell line": "LCLC-97TM1", "relative viability": 0.417}
{"cell line": "LCLC-103H", "relative viability": 0.3}
{"cell line": "LK-2", "relative viability": 0.397}
{"cell line": "LOU-NH91", "relative viability": 0.725}
{"cell line": "LU99A", "relative viability": 0.826}
{"cell line": "LXF-289", "relative viability": 0.561}
{"cell line": "NCI-H23", "relative viability": 0.585}
{"cell line": "NCI-H322M", "relative viability": 0.342}
{"cell line": "NCI-H358", "relative viability": 0.24}
{"cell line": "NCI-H441", "relative viability": 0.765}
{"cell line": "NCI-H460", "relative viability": 0.317}
{"cell line": "NCI-H520", "relative viability": 0.757}
{"cell line": "NCI-H522", "relative viability": 0.676}
{"cell line": "NCI-H596", "relative viability": 1}
{"cell line": "NCI-H647", "relative viability": 0.249}
{"cell line": "NCI-H650", "relative viability": 0.377}
{"cell line": "NCI-H661", "relative viability": 0.252}
{"cell line": "NCI-H1563", "relative viability": 0.642}
{"cell line": "NCI-H1623", "relative viability": 0.652}
{"compound": "C=CCn1c(=O)c2cnc(Nc3ccc(N4CCN(C)CC4)cc3)nc2n1-c1cccc(C(C)(C)O)n1 [Adavosertib] + CC(=O)c1c(C)c2cnc(Nc3ccc(N4CCNCC4)cn3)nc2n(C2CCCC2)c1=O [Palbociclib] (partner 0.5 µM)", "test": "relative viability (nuclei count vs DMSO), 5 days (fraction); higher = more cells survive", "conditions": "first compound 0.01 µM", "in_short": "as §1"}
{"cell line": "201T", "relative viability": 0.336}
{"cell line": "A-427", "relative viability": 0.517}
{"cell line": "ABC-1", "relative viability": 0.736}
{"cell line": "BEN", "relative viability": 0.452}
{"cell line": "CAL-12T", "relative viability": 0.403}
{"cell line": "COR-L23", "relative viability": 0.291}
